From ChEMBL document CHEMBL1201862, “PubChem BioAssay data set” (2004)
One block for each compound: values may come before it. Calls of active or inactive are those of the source.

Experiments:
[1] = target: E3 ubiquitin-protein ligase XIAP (Homo sapiens, UniProt P98170); experiment: Counter Screen using XIAP-Bir3 for Chemical Antagonists of Bir1/2 domains of IAP-family anti-apoptotic proteins. [Related pubchem assays (depositor defined):AID1018, AID1449, AID1514, AID1638, AID1749, AID1750, AID488957, AID488963]
[2] = target: Luciferin 4-monooxygenase (Photinus pyralis, UniProt P08659); experiment: firefly luciferase enzyme inhibitors, dose response, biochemical, luminescence (AID 1891)
[3] = target: G-protein coupled receptor 55 (Homo sapiens, UniProt Q9Y2T6); experiment: GPR55 agonists via beta-arrestin recruitment, primary screen, imaging, U2OS cells, beta-arrestin-GFP redistribution (AID 1961); assay type: functional
[4] = Luminescence Cell-Based Dose Confirmation HTS to Identify Inhibitors of Platelet Dense Granule Release. [Related pubchem assays: 1663 (Primary HTS), 1678 (Summary of Project)]; assay type: functional
[5] = target: T1, Estrogen receptor (Homo sapiens, UniProt P03372);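 note: potency for inhibiting coactivator peptide recruitment to the receptor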
T1 sequence (P03372 whole entry): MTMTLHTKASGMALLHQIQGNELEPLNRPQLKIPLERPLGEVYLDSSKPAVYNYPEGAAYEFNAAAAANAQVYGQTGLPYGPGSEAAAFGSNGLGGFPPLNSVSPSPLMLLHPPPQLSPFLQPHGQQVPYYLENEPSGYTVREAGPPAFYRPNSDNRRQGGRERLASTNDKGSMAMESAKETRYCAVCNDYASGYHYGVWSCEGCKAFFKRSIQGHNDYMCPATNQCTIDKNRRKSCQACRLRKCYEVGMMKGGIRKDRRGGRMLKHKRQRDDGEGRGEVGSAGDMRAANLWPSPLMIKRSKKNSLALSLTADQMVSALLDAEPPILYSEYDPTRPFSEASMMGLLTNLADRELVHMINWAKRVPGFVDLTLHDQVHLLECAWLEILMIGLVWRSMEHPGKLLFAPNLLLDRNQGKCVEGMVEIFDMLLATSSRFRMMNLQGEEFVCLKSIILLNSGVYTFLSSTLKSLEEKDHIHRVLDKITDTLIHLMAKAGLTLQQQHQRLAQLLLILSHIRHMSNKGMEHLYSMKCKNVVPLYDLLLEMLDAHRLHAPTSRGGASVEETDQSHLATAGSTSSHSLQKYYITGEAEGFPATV

[6] = target: DNA dC->dU-editing enzyme APOBEC-3G (Homo sapiens, UniProt Q9HC16); experiment: Dose Response confirmation of small molecule APOBEC3G DNA Deaminase Inhibitors via a fluorescence-based single-stranded DNA deaminase assay. [Related pubchem assays (depositor defined):AID493012, AID493028]; assay type: functional
[7] = target: DNA dC->dU-editing enzyme APOBEC-3A (Homo sapiens, UniProt P31941); experiment: APOBEC3A DNA deaminase inhibitors, dose response, biochemical (AID 504722); assay type: functional
[8] = target: T2, Bcl-2-related protein A1 (Mus musculus, UniProt Q07440); assay type: functional;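 note: confirmatory dose–response counterscreen on Bfl-1, used to check hits from a UBC13 polyubiquitin inhibitor campaign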
T2 sequence (Q07440 whole entry): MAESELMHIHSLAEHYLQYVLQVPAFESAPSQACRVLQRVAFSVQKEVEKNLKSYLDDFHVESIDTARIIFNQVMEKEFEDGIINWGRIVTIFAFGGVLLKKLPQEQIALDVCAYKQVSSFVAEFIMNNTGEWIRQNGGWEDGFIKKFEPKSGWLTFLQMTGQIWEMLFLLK

[9] = target: T3, Ubiquitin-conjugating enzyme E2 N (Homo sapiens, UniProt P61088); assay type: functional
T3 sequence (P61088 whole entry): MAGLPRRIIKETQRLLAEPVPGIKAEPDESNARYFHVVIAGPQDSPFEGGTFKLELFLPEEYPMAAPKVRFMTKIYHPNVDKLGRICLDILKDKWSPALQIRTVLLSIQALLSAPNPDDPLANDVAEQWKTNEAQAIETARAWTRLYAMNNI

[10] = target: T3, Ubiquitin-conjugating enzyme E2 N; assay type: functional; remark: listed apart in the source
[11] = target: T4, Hexokinase (Trypanosoma brucei, UniProt Q38C41); experiment: Confirmation assay for inhibitors of Trypanosoma brucei hexokinase 1-Analogue-first series. [Related pubchem assays (depositor defined):AID1430, AID1632, AID2516, AID2560, AID2579, AID2600, AID449725, AID492951]; assay type: functional
T4 sequence (Q38C41 whole entry): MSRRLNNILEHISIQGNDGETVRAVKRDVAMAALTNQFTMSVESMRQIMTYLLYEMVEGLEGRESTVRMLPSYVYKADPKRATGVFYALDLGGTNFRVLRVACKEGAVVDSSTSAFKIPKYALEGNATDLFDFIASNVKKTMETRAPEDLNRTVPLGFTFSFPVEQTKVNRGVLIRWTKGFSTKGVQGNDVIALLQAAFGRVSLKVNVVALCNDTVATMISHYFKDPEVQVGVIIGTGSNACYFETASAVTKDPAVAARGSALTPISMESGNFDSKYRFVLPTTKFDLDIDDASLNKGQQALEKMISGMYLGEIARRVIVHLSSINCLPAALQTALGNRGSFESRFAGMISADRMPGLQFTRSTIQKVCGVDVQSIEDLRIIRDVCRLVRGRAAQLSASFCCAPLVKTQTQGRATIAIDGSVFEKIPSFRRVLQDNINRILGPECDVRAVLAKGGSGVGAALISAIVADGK

[12] = target: Glucose-6-phosphate 1-dehydrogenase (Homo sapiens, UniProt P11413); experiment: human G6PD enzyme inhibitors, dose response, selectivity assay for P. falciparum G6PD inhibitor project, biochemical, fluorescence (AID 504792); assay type: functional
[13] = HeLa cell cytotoxicity, dose response, cytotoxicity control for MgcRacGAP inhibitor project (AID 624300); assay type: functional
[14] = target: T5, Rac GTPase-activating protein 1 (Homo sapiens, UniProt Q9H0H5); experiment: MgcRacGAP GTPase-activating activity inhibitors, confirmation, biochemical, ADP Hunter fluorescence, primary and confirmatory (AID 624330); assay type: functional
T5 sequence (Q9H0H5 whole entry): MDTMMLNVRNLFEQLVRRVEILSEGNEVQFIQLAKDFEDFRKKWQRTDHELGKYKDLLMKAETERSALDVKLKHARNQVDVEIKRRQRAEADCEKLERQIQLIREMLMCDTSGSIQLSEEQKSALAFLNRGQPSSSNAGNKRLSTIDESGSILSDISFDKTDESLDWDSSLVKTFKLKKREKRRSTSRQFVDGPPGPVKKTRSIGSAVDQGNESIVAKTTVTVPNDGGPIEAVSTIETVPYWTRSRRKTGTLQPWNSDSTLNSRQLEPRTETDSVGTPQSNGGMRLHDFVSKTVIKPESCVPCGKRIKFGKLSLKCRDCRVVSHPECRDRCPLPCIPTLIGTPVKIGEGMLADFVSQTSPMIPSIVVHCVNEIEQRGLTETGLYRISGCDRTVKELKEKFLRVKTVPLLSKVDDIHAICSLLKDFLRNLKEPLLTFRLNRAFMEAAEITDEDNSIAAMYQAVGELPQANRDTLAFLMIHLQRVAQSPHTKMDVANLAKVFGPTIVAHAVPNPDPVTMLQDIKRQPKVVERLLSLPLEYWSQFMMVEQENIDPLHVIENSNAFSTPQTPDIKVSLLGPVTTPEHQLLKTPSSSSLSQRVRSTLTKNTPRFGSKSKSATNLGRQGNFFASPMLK

[15] = target: Large T antigen (Simian virus 40, UniProt P03070); assay type: functional, Betapolyomavirus macacae;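 note: Confirmatory-stage PubChem screen for compounds that inhibit SV40 T antigen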
Large T antigen, sequence (P03070 whole entry): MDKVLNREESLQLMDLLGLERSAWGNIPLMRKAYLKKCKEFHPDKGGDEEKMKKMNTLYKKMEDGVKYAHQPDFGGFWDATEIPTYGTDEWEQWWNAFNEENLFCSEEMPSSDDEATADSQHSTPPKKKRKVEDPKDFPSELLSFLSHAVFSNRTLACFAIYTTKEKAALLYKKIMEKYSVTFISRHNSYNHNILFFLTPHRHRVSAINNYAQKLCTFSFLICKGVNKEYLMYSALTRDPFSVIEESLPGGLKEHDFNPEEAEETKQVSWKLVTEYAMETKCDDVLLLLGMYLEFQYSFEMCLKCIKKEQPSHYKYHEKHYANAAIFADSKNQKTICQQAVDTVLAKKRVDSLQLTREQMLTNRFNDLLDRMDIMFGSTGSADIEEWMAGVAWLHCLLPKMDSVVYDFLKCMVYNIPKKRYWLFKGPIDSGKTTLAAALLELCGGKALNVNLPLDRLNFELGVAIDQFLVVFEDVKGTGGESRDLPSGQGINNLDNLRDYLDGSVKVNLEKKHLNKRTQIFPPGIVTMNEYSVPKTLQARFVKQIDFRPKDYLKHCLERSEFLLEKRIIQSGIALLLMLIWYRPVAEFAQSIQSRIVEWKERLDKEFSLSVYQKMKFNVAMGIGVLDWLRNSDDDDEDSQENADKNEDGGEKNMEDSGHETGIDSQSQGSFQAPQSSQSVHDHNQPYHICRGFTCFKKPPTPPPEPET

DNA dC->dU-editing enzyme APOBEC-3G, sequence (Q9HC16 whole entry): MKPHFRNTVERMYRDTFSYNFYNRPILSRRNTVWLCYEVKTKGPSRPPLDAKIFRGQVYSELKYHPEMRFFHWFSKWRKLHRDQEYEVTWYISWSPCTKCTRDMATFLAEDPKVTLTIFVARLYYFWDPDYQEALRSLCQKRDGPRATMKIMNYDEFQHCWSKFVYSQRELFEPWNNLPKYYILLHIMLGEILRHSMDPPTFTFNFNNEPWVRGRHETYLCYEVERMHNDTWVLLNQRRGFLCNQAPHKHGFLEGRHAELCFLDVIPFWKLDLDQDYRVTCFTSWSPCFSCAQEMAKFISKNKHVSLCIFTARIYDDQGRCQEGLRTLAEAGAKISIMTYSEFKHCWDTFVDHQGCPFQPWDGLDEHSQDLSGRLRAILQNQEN
DNA dC->dU-editing enzyme APOBEC-3A, sequence (P31941 whole entry): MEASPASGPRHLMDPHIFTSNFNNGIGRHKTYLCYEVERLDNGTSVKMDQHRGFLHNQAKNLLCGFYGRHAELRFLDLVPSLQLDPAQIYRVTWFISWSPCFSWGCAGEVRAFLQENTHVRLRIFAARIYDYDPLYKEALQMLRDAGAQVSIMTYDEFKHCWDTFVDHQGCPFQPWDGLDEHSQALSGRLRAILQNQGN
Glucose-6-phosphate 1-dehydrogenase, sequence (P11413 whole entry): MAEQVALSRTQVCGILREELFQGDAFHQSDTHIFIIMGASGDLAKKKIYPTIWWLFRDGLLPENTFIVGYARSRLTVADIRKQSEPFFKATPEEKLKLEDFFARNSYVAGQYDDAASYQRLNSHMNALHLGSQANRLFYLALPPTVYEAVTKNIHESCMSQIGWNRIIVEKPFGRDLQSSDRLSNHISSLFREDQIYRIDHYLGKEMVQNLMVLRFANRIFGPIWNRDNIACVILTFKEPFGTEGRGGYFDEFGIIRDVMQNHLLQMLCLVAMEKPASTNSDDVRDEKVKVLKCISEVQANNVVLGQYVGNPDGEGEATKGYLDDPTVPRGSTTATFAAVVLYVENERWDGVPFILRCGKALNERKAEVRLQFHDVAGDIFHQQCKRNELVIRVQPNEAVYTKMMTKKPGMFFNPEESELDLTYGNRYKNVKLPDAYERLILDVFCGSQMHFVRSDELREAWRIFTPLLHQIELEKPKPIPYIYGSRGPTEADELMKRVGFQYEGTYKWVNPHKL
Luciferin 4-monooxygenase, sequence (P08659 whole entry): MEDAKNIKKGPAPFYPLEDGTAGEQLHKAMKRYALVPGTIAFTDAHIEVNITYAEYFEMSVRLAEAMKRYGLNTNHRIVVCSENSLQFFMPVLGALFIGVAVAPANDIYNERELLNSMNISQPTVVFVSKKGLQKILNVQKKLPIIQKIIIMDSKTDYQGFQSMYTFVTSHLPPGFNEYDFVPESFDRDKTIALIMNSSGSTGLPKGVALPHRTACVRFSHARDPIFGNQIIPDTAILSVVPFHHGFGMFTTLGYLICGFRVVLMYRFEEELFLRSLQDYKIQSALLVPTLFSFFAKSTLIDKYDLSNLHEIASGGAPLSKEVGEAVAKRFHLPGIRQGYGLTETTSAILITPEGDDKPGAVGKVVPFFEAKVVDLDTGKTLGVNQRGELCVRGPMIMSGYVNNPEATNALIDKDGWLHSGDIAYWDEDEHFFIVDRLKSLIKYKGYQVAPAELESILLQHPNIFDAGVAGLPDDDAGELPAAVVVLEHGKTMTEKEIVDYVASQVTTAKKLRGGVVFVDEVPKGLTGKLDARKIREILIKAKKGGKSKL
E3 ubiquitin-protein ligase XIAP, sequence (P98170 whole entry): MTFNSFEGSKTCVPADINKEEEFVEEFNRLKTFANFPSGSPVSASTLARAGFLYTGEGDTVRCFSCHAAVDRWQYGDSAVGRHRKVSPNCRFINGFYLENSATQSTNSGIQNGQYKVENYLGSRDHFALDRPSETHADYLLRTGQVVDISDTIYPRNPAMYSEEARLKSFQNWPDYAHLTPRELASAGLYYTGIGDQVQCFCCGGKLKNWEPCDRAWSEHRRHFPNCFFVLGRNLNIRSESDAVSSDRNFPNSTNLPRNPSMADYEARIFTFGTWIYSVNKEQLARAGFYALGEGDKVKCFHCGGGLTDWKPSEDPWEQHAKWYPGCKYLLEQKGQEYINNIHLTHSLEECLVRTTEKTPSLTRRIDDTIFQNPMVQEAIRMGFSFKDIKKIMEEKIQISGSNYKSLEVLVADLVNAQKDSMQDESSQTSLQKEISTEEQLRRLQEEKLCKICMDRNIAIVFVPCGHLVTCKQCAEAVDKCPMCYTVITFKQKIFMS
G-protein coupled receptor 55, sequence (Q9Y2T6 whole entry): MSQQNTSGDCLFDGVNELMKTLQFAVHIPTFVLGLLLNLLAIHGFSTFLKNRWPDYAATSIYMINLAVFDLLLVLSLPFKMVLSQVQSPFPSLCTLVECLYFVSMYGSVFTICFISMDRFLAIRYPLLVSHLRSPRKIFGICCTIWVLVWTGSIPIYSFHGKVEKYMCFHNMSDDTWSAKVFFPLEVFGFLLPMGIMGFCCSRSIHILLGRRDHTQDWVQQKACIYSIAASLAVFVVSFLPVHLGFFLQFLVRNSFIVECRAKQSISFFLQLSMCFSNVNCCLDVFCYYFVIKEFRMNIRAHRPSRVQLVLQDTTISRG

IC50 [1]: > 20 µM (inactive)
SMILES: O=c1[nH]c(-c2ccc(F)cc2)nc2c1sc(=S)n2-c1ccccc1

SMILES: O=C(NCc1ccco1)c1nn2c(C(F)(F)F)cc(-c3cccs3)nc2c1Br
EC50 [2]: > 112 µM (not active) | EC50 [3]: > 32 µM (inactive) | EC50 [4]: > 112 µM (not active) | IC50 [5]: 36.9 µM (not active)

SMILES: CCOC(=O)CSc1nnc(S)s1
IC50 [6]: 15 µM (active) | IC50 [7]: > 100 µM (inactive)

IC50 [8]: > 20 µM (inactive) | IC50 [9]: 5.19 µM (active) | IC50 [10]: 5.27 µM (active)
SMILES: CCOc1ccc(NC(=O)Cn2c(=O)n(CCCC(=O)NC3CCN(Cc4ccccc4)CC3)c(=O)c3ccccc32)cc1

IC50 [8]: > 20 µM (inactive) | IC50 [9]: > 20 µM (inactive) | IC50 [10]: 12.7 µM (active)
SMILES: CN(C)CCCN(C(=O)c1ccc(S(=O)(=O)N2CCCCC2)cc1)c1nc2cc3c(cc2s1)OCO3

SMILES: O=c1c2ccccc2sn1-c1ccc(Cl)cc1Cl
IC50 [11]: 5.03 µM (active) | IC50 [12]: 17 µM (active) | CC50 [13]: 74.7 µM (active) | IC50 [14]: 31.8 µM (active)

SMILES: COc1ccc(C(=O)Nc2cc(C(F)(F)F)ccc2C(=O)O)cc1
IC50 [11]: 17 µM (active)

SMILES: O=c1c2ccccc2sn1-c1cccc(F)c1
IC50 [11]: 1.82 µM (active)

SMILES: Sc1nnc(-c2ccccn2)n1/N=C/c1cccc(Cl)c1
IC50 [6]: 2.81 µM (active) | IC50 [7]: > 100 µM (inactive)

SMILES: C/N=c1/nc(-c2ccccc2)n(-c2ccccc2)s1
IC50 [15]: 29.4 µM (active) | IC50 [12]: 10.1 µM (active) | IC50 [6]: 15.9 µM (active) | IC50 [7]: > 100 µM (inactive)
